Tests used:
RPTEC/hTERT cells = experiment: Cell viability assay (CellTiter-Glo); type: cell-based, human; settings: cisplatin 50 μM, KW-6002 0.5-12.8 μM, 48 hours
Method: Cells were cultured in DMEM/F12 medium (Dulbecco's modified Eagle's medium and Ham's F12 medium, Thermo Fisher) supplemented with 1% penicillin/streptomycin, 5 pmol/L triiodo-L-thyronine, 10 ng/ml recombinant human epidermal growth factor, 3.5 μg/mL ascorbic acid, 5.0 μg/mL human transferrin, 5.0 μg/mL insulin, 25 ng/mL prostaglandin E1, 25 ng/ml hydrocortisone, 8.65 ng/mL sodium selenite, 0.1 mg/mL G418 and 1.2 g/L sodium bicarbonate (Sigma). Lewis lung carcinoma mouse LLC1 cells were cultured in DMEM glutamax (Thermo Fisher) containing 10% fetal calf serum and 1% penicillin/streptomycin. Cells were cultured at 37° C. in a humidified atmosphere of 5% CO2.
Viability was assessed using the CellTiter-Glo® Luminescent Cell Viability Assay (Promega) according to manufacturer's recommendations.

RPTEC/hTERT1 cells = experiment: Quantitative RT-PCR of Nrf2 and HO1 in RPTEC/hTERT1 cells; type: cell-based, human; settings: in vitro
Method: FIG. 6. KW6002 alleviates the cisplatin-induced nephrotoxicity associated with apoptosis, lipid metabolism, and oxidative stress. (A) Tail moment assessed by comet assay; 50 cells/condition were analyzed. (B and C) KW6002 attenuates cisplatin-induced renal lipid accumulation, assessed by Red Oil staining. […] Results are the mean±SEM (n=6-9 mice/group). (F-H) KW6002 attenuated cisplatin-induced oxidative stress in RPTEC/hTERT1 cells. (F and G) Gene expression of Nrf2 (F) and HO1 (G). […] Results are the mean±SEM (n=3 independent experiments).
Total RNA from kidney samples was extracted with phenol/chloroform and subsequently precipitated in isopropanol as described previously (71). Total RNA from cultured renal cells was extracted using RNeasy Mini kit (Qiagen) following manufacturer's recommendations.
Reverse transcription was performed on 1 μg of RNA using high-capacity cDNA reverse transcription kit (Thermo Fisher), according the manufacturer's recommendation. Real time PCR was performed on a StepOne device using Taqman Gene Expression Master Mix (Thermo Fisher), following manufacturer's recommendations. […]

tumor cell transcriptome = experiment: Whole transcriptome analysis of LLC1 tumors; type: in vivo, mice
Method: RNA-seq libraries (n=5-6/group) were generated from 500 ng of total RNA using Illumina® TruSeq® Stranded mRNA Library Prep Kit v2. Briefly, following purification with poly-T oligo attached magnetic beads, the mRNA was fragmented using divalent cations at 94° C. for 2 min. The cleaved RNA fragments were copied into first-strand cDNA using reverse transcriptase and random primers. […] Surplus PCR primers were further removed by purification using AMPure XP beads (Beckman Coulter), and the final cDNA libraries were checked for quality and quantified using capillary electrophoresis. Sequencing was performed on the Illumina® Genome Hiseq4000 as single-end 50 base reads following Illumina's instructions. Reads were mapped onto the mm 10 assembly of Mus musculus genome using STAR v2.5.3a (72). Only uniquely aligned reads were kept for further analyses. Quantification of gene expression was performed using HTSeq-count v0.6.1p1 (73) and gene annotations from Ensembl releases 90 and 102 and “union” mode. Read counts were normalized across libraries with the method proposed by Ander et al. (74). […]

CCn1c(=O)c2c(nc(/C=C/c3ccc(OC)c(OC)c3)n2C)n(CC)c1=O [KW-6002, 8-[(E)-2-(3,4-dimethoxyphenyl)vinyl]-1,3-diethyl-7-methyl-3,7-dihydro-1H-purine-2,6-dione]
cisplatin-induced cell death (RPTEC/hTERT cells): reduced cisplatin-induced cell death in a concentration-dependent manner
cisplatin-induced cell death (RPTEC/hTERT cells; listed as KW6002): concentration-dependently reduced cisplatin-induced cell death
cisplatin-induced increase in expression of Nrf2 (RPTEC/hTERT1 cells; FIG. 6F): normalized
cisplatin-induced increase in expression of HO1 (RPTEC/hTERT1 cells; FIG. 6G): normalized
selectively modulated genes that were downregulated (tumor cell transcriptome; among the 2497): 1016 genes
genes selectively modulated by cisplatin/KW-6002 co-treatment vs. vehicle (tumor cell transcriptome; out of 3923): 2497 genes
